Read-outs that look alike come from different tables or passages of the source.
How the values were obtained:
[1] = system: Phosphorylation of ERK1/2 in MIA PaCa-2 cells; test: Phospho-ERK1/2 MSD assay in MIA PaCa-2 cells; format: cell-based; settings: Homo sapiens
Method in brief: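 MSD electrochemiluminescence readout of phospho-ERK1/2 in whole-cell lysates, IC50 by 4-parameter logistic fit. Compound titrations were applied for 2 or 4 h at 37 °C, 5% CO2, followed by 10 ng/mL EGF stimulation for 10 min before lysis.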

[2] = system: Phosphorylation of ERK1/2 in A549 cells; test: Phospho-ERK1/2 MSD assay in A549 cells; format: cell-based; settings: Homo sapiens
Description: For compounds in Table 89, the following assay conditions were employed:
Phospho-ERK1/2 MSD Assay:
Sixteen hours prior to compound treatment, MIA PaCa-2 or A549 cells were seeded in 96-well cell culture plates at a density of 25,000 cells/well and incubated at 37° C., 5% CO2. A compound dose-response titration was diluted in growth media, added to appropriate wells of a cell culture plate, and then incubated at 37° C., 5% CO2 for 2 or 4 hours (see Table 15). Following compound treatment, cells were stimulated with 10 ng/mL EGF (Roche 11376454001) for 10 min, washed with ice-cold Dulbecco's phosphate-buffered saline, no Ca^2+ or Mg^2+ (ThermoFisher Scientific 14190144), and then lysed in RIPA buffer (50 mM Tris-HCl pH 7.5, 1% Igepal, 0.5% sodium deoxycholate, 150 mM NaCl, and 0.5% sodium dodecyl sulfate) containing protease inhibitors (Roche 4693132001) and phosphatase inhibitors (Roche 4906837001). Phosphorylation of ERK1/2 in compound-treated lysates was assayed using Phospho-ERK1/2 Whole Cell Lysate kits (Meso Scale Discovery K151DWD) according to the manufacturer's protocol. Assay plates were read on a Meso Scale Discovery Sector Imager 6000, and data were analyzed using a 4-parameter logistic model to calculate IC50 values.

[3] = molecular target: GDP-bound KRAS protein (aa 1-169), containing both G12C and C118A amino acid substitutions (Homo sapiens, UniProt P01116, C118A/G12C); test: Coupled nucleotide exchange assay (SOS-mediated, AlphaScreen); format: biochemical; settings: for Coupled exchange IC50 (2 h): 2 h compound pre-incubation
Sequence of GDP-bound KRAS protein (aa 1-169), containing both G12C and C118A amino acid substitutions (P01116 1-169 isoform P01116-2 G12C/C118A): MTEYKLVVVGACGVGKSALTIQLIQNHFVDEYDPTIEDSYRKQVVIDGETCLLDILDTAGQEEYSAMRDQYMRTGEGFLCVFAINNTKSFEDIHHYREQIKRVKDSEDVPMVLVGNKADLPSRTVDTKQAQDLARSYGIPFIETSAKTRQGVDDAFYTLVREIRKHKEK

[4] = MIA PaCa-2, 2 h, read-out: p-ERK IC50 (2 h; MIA PaCa-2), 2 h compound treatment
[5] = A549, 2 h, read-out: p-ERK IC50 (2 h; A549), 2 h compound treatment
[6] = MIA PaCa-2, 4 h, read-out: p-ERK IC50 (4 h; MIA PaCa-2), 4 h compound treatment
[7] = A549, 4 h, read-out: p-ERK IC50 (4 h; A549), 4 h compound treatment

Structure (SMILES)	IC50 [1, 4] [nM]	IC50 [2, 5] [nM]	Coupled exchange IC50 (5 min) ([3]; 5 min compound pre-incubation)	Coupled exchange IC50 (2 h) [3]	IC50 ([3]; read-out: Coupled exchange IC50 (5 min), 5 min compound pre-incubation) [nM]	IC50 [1, 6] [nM]	IC50 [2, 7] [nM]
C=CC(=O)N1CCN(c2nc(=O)n(-c3ccccc3C3CCC3)c3nc(-c4ccccc4F)c(Cl)cc23)[C@@H](C)C1 [Example 54-12, 6-chloro-1-(2-cydobutyl-phenyl)-7-(2-fluorophenyl)-4-((2S)-2-methyl-4-(2-propenoyl)-1-piperazinyl) pyrido[2,3-d]pyrirnidin-2(1H)-one]	162	≥ 10000	0.289 | nda μM	–	–	–	–
C=CC(=O)N1CCN(c2nc(=O)n(-c3nccn3C(C)C)c3nc(-c4c(O)cccc4F)c(Cl)cc23)[C@@H](C)C1 [Example 54-13, 6-chloro-7-(2-fluoro-6-hydroxy-phenyl)-4-((2S)-2-methyl-4-(2-propenoyl)-1-piperazinyl)-1-(1-(2-propanyl)-1H-imidazol-2-yl)pyrido[2,3-d]pyrimidin-2(1H)-one]	2560	≥ 10000	0.811 | nda μM	–	–	–	–
C=CC(=O)N1CCN(c2nc(=O)n(-c3c(CC)cccc3CC)c3nc(-c4ccccc4C4CC4)c(Cl)cc23)[C@@H](C)C1 [Example 54-22, 6-chloro-7-(2-cyclopropyl-phenyl)-1-(2,6-diethyl-phenyl)-4-((2S)-2-methyl-4-(2-propenoyl)-1-piperazinyl) pyrido[2,3-d]pyrimidin-2(1H)-one]	245	≥ 33300	0.347 µM	97 nM	–	–	–
C=CC(=O)N1CCN(c2nc(=O)n(-c3c(CC)cccc3CC)c3nc(-c4ccccc4C(C)C)c(Cl)cc23)[C@@H](C)C1 [Example 54-23, 6-chloro-1-(2,6-diethylphenyl)-4-((2S)-2-methyl-4-(2-propenoyl)-1-piperazinyl)-7-(2-(2-propanyl)phenyl)pyrido [2,3-d]pyrimidin-2(1H)-one]	122	≥ 10000	0.103 | nda μM	–	–	–	–
C=CC(=O)N1CCN(c2nc(=O)n(-c3nocc3C3CC3)c3nc(-c4c(O)cccc4F)c(Cl)cc23)[C@@H](C)C1 [Example 54-24, 6-chloro-1-(4-cyclopropyl-1,2-oxazol-3-yl)-7-(2-fluoro-6-hydroxyphenyl)-4-((2S)-2-methyl-4-(2-propenoyl)-1-piperazinyl) pyrido[2,3-d]pyrimidin-2(1H)-one]	942	≥ 10000	0.797 | nda μM	–	–	–	–
C=CC(=O)N1CCN(c2nc(=O)n(-c3c(Cl)cccc3Cl)c3nc(-c4ccccc4F)c(Cl)cc23)[C@@H](C)C1 [Example 54-30, 6-chloro-1-(2,6-dichlorophenyl)-7-(2-fluorophenyl)-4-((2S)-2-methyl-4-(2-propenoyl)-1-piperazinyl) pyrido[2,3-d]pyrimidin-2(1H)-one]	453	≥ 10000	0.824 | nda μM	–	–	–	–
C=CC(=O)N1CCN(c2nc(=O)n(-c3ccccc3CC)c3nc(-c4ccccc4F)c(Cl)cc23)[C@@H](C)C1 [Example 54-31, 6-chloro-1-(2-ethylphenyl)-7-(2-fluorophenyl)-4-((2S)-2-methyl-4-(2-propenoyl)-1-piperazinyl) pyrido[2,3-d]pyrimidin-2(1H)-one]	237	≥ 10000	0.395 | nda μM	–	–	–	–
C=CC(=O)N1CCN(c2nc(=O)n(-c3ccccc3Cl)c3nc(-c4ccccc4F)c(Cl)cc23)[C@@H](C)C1 [Example 54-32, 6-chloro-1-(2-chlorophenyl)-7-(2-fluorophenyl)-4-((2S)-2-methyl-4-(2-propenoyl)-1-piperazinyl) pyrido[2,3-d]pyrimidin-2(1H)-one]	796	≥ 10000	1.963 | nda μM	–	–	–	–
C=CC(=O)N1CCN(c2nc(=O)n(-c3c(Cl)cccc3Cl)c3nc(-c4c(O)cccc4F)c(Cl)cc23)[C@@H](C)C1 [Example 54-33, 6-chloro-1-(2,6-dichlorophenyl)-7-(2-fluoro-6-hydroxyphenyl)-4-((2S)-2-methyl-4-(2-propenoyl)-1-piperazinyl) pyrido[2,3-d]pyrimidin-2(1H)-one]	215	≥ 10000	0.176 | nda μM	–	–	–	–
C=CC(=O)N1CCN(c2nc(=O)n(-c3c(C)cncc3C)c3nc(-c4c(O)cccc4F)c(Cl)cc23)[C@@H](C)C1 [Example 54-41, 6-chloro-1-(3,5-dimethyl-4-pyridinyl)-7-(2-fluoro-6-hydroxyphenyl)-4-((2S)-2-methyl-4-(2-propenoyl)-1-piperazinyl) pyrido[2,3-d]pyrimidin-2(1H)-one]	2900	≥ 10000	0.724 | nda μM	–	–	–	–
C=CC(=O)N1CCN(c2nc(=O)n(-c3c(C)ncnc3C)c3nc(-c4c(O)cccc4F)c(Cl)cc23)[C@@H](C)C1 [Example 54-48, 6-chloro-1-(4,6-dimethyl-5-pyrimidinyl)-7-(2-fluoro-6-hydroxyphenyl)-4-((2S)-2-methyl-4-(2-propenoyl)-1-piperazinyl) pyrido[2,3-d]pyrimidin-2(1H)-one]	2380	≥ 10000	0.779 | nda μM	–	–	–	–
C=CC(=O)N1CCN(c2nc(=O)n(-c3ncccc3C(C)C)c3nc(-c4c(O)cccc4F)c(Cl)cc23)[C@@H](C)C1 [Example 54-57, 6-chloro-7-(2-fluoro-6-hydroxyphenyl)-4-((2S)-2-methyl-4-(2-propenoyl)-1-piperazinyl)-1-(3-(2-propanyl)-2-pyridinyl) pyrido[2,3-d]pyrimidin-2(1H)-one]	53	≥ 10000	–	–	83	–	–
C=CC(=O)N1CCN(c2nc(=O)n(-c3ccncc3C3CC3)c3nc(-c4c(O)cccc4F)c(Cl)cc23)[C@@H](C)C1 [Example 54-59, 6~chloro-1-(3-cyclopropyl-4-pyridinyl)-7-(2-fluoro-6-hydroxyphenyl)-4-((2S)-2-methyl-4-(2-propenoyl)-1-piperazinyl) pyrido[2,3-d]pyrimidin-2(1H)-one]	712	≥ 10000	0.22 | nda μM	–	–	–	–
C=CC(=O)N1CCN(c2nc(=O)n(-c3c(CC)cccc3CC)c3nc(-c4ccccc4F)c(Cl)cc23)[C@@H](C)C1 [Example 54-60, 6-ehloro-1-(2,6-diethylphenyl)-7-(2-fluorophenyl)-4-((2S)-2-methyl-4-(2-propenoyl)-1-piperazinyl) pyrido[2,3-d]pyrimidin-2(1H)-one]	145	≥ 10000	0.216 µM	93 nM	–	91	≥ 11100
C=CC(=O)N1CCN(c2nc(=O)n(-c3c(CC)cccc3CC)c3nc(Cl)c(Cl)cc23)[C@@H](C)C1 [Example 54-61, 6,7-dichloro-1-(2,6-diethylphenyl)-4-((2S)-2-methyl-4-(2-propenoyl)-1-piperazinyl) pyrido[2,3-d]pyrimidin-2(1H)-one]	–	–	–	nda | 0.379 μM	–	1370	≥ 11100
C=CC(=O)N1CCN(c2nc(=O)n(-c3c(CC)cccc3CC)c3nc(-c4ccccc4)c(Cl)cc23)[C@@H](C)C1 [Example 54-62, 6-chloro-1-(2,6-diethylphenyl)-4-((2S)-2-methyl-4-(2-propenoyl)-1-piperazinyl)-7-phenyl-pyrido[2,3-d]pyrimidin-2(1H)-one]	407	≥ 10000	0.808 µM	172 nM	–	223	≥ 100000
C=CC(=O)N1CCN(c2nc(=O)n(-c3c(CC)cccc3CC)c3nc(-c4ccccc4O)c(Cl)cc23)[C@@H](C)C1 [Example 54-63, 6-chloro-1-(2,6-diethylphenyl)-7-(2-hydroxyphenyl)-4-((2S)-2-methyl-4-(2-propenoyl)-1-piperazinyl) pyrido[2,3-d]pyrimidin-2(1H)-one]	291	–	0.845 µM	164 nM	–	136	≥ 33300
C=CC(=O)N1CCN(c2nc(=O)n(-c3c(CC)cccc3CC)c3nc(-c4c(F)cccc4F)c(Cl)cc23)[C@@H](C)C1 [Example 54-65, 6-chloro-1-(2,6-diethylphenyl)-7-(2,6-difluorophenyl)-4-((2S)-2-methyl-4-(2-propenoyl)-1-piperazinyl) pyrido[2,3-d]pyrimidin-2(1H)-one]	140	≥ 10000	0.253 µM	54 nM	–	133	≥ 100000

Source: patent US11090304B2 (Amgen Inc., priority 2018, dated 2021)
